Measured values from article PMC8896804 (Science Advances, 2022).

Columns and labels:
[1] = tested on: platytocin receptor (PTR); format: cell-based; conditions: COS-7 cells transfected with ptr, cotreated with platytocin 90 min at 37°C; global Schild analysis, slope of 1; mean ± SEM, n = 4
S. pusilla = assay: Survival after hyper-osmotic salinity exposure; format: in vivo, Stylochoplana pusilla; conditions: 10^−6 M OVTA, n = 45, Fig. 3B

In the case of “[d(CH2)5^1, Tyr(Me)^2, Thr^4, Orn^8, Tyr^9-NH2]–vasotocin [OVTA]”, the “pA2, block of platytocin-mediated IP1 accumulation” value [1] is reported as 6.99 ± 0.27 and the “hyperosmolality (70 ppt) resistance” value (S. pusilla) is reported as “Hyperosmolality (70 ppt) resistance is blocked by 10^−6 M OVTA”.
